Results from patent publication US12208093B2 (THE JOHNS HOPKINS UNIVERSITY, priority 2016, dated 2025).

Columns and labels:
[1] = system: pp28-luciferase HCMV Towne; test: microbe, parasite or virus in culture; type: cell-based, human cytomegalovirus (HCMV); conditions: HFFs 0.5-2 million cells/plate; emetine 75 nM, GCV 5 μM
From the text: A GCV-resistant pp28-luciferase HCMV strain, with a C607Y mutation in UL97 was also used. The recombinant viruses express luciferase under the control of the late CMV gene promoter, pp28. […] The recombinant viruses provide a highly-sensitive and reproducible reporter system which correlates with the classic plaque reduction assay. […] Human herpes virus strains were: luciferase HSV1-KOS/Dlux/oriS and clinical isolates of HSV2.
Cell culture, virus infection and anti-viral assays. […] Infection with HCMV or HSV was performed in HFFs, and infection with mouse CMV was performed in MEFs. For HCMV, cells were seeded in either a 96-well plate or 100 mm culture plates (Corning Costar, Sigma Aldrich) at 0.5 or 2 million cells/plate. Following 90 minute adsorption, media was removed and cells were washed with PBS. Media containing 4% FBS and compounds were added to each well. Infected treated HFFs were collected at 72 hpi and lysates were assayed for luciferase activity using a luciferase assay kit (Promega, Madison, WI) on GloMax®-Multi+Detection System (Promega). In second cycle assays, supernatants were collected from all conditions of the first cycle at 96 hpi and used for infection of fresh HFFs in 96-well-plates. […] For HSV1-KOS/Dlux/oriS, a luciferase assay was performed at 24 hpi. Plaque assays were performed with clinical isolates of HSV2 and HCMV Towne. […] Following virus adsorption (60 min and 90 min for HSV and HCMV, respectively), virus was aspirated, and DMEM containing 4% fetal bovine serum (FBS) with (for HSV) or without (for HCMV) 0.5% carboxymethyl-cellulose, were added with the compounds at indicated concentrations into triplicate wells. After incubation at 37° C. for 10 days (for HCMV) or 2 days (for HSV), the overlay was removed and plaques were counted after crystal violet staining.

[2] = system: HCMV entry; test: Virus entry immunofluorescence assay for pp65; type: cell-based; conditions: emetine 75 nM, GCV 10 μM, CpG 2006 10 μM; added 24 h prior to infection
Protocol: Immunofluorescence. […] Compounds were diluted in serum-free medium and added to HFFs seeded on chamber slides 24 h prior to infection. After infection and treatment, cells were fixed, permeabilized, and air-dried. Cells were then incubated with mouse monoclonal anti-pp65 antibody at 37° C. in humidified chambers for 1 h, washed three times with 0.1% Tween 20 in PBS (PBST), incubated with rhodamine conjugated anti-mouse IgG (Sigma Chemical Co) at 37° C. in humidified chambers for 1 h, and washed with PBST (0.1% Tween 20). A drop of mount oil containing DAPI (4,6-diamidino-2-phenylindole) (Santa Cruz) was added to the slides before visualization with a Nikon Eclipse E-800 fluorescence microscope.

[3] = system: MDM2-IE2 interaction; test: Co-immunoprecipitation of MDM2 and IE2 in transfected HEK293 cells; type: cell-based; conditions: HEK293 cells transfected with IE1/2; emetine 75 nM or GCV 5 μM, 4 h
Protocol: Transient transfections. HEK-293 cells seeded into 10 cm petri dishes were transfected with HCMV plasmid encoding IE1 and IE2 (pRL45) plasmid, 1 μg/dish, using Lipofectamine 2000 in serum free medium. After 6 h, 10% FBS containing media was added along with 10 μM of MG132. […] Cells were then harvested to prepare lysates for IP.
Co-immunoprecipitation (IP) and immunoblotting. Non-infected, infected or emetine-treated HFFs were treated with MG132 (10 μM) for 12 h. Cells were harvested after 24 hpi and lysed with IP buffer containing 150 mM NaCl, 50 mM Tris pH 7.5, 2 mM EDTA, 0.5% TritonX-100 and 0.5% NP-40-40. 1 mg of lysate was precleared with bead slurry for 30 min. The precleared lysates were incubated with anti-MDM2 (2 μg) antibody overnight. The antibody complexes were isolated using protein A/G beads (Santa Cruz), washed three times with 50% IP buffer. The immunoprecipitate—protein A/G beads were boiled in SDS sample buffer, and the supernatant was analyzed on SDS-PAGE gels after immunoblotting as described previously. […] Reverse IPs were performed by pulling down the precleared lysates with either anti-p53 antibody or anti-RPS14 antibody and detected with MDM2. […] In other experiments, transfected or treated HEK293 cell lysates were pulled-down with anti-IE2 antibody and detected with anti-MDM2 antibody and vice-versa for reverse IP.

[4] = system: HCMV; test: Generation of drug resistant virus; type: cell-based, human cytomegalovirus (HCMV); conditions: 5 passages, two fold increases of concentration
Protocol: Generation of drug resistant virus. Screening of drug resistant virus was performed as reported. Two million cells were plated on a 6-well plate and infected with HCMV (MOI 0.05). […] The cells were maintained in DMEM with 4% FBS until plaques were observed. The supernatants from these plates were used to infect fresh HFFs in a 6-well plate and each time drug concentration was increased by two fold. […] DNA extracted from supernatants collected at the last stage was used for UL97 sequencing.

Structure (SMILES): Nc1nc(O)c2ncn(COC(CO)CO)c2n1 [GCV, Ganciclovir]
- HCMV inhibition in relation to cell density at time of infection [1]: inhibited HCMV replication irrespective of cell density
- inhibition of viral entry [2]: neither emetine nor GCV inhibited viral entry
- interaction of MDM2 and IE2 [3]: no effect
- selection of resistant virus with increasing drug concentration [4]: did select for resistant mutants
